Assay results reported in the supplement of paper PMC10307832.

Legend:
Test in all cases: relative viability (nuclei count vs DMSO), 5 days (fraction); higher = more cells survive
NCI-H838 = settings: first compound 20 µM
Outline: (§1)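 After 5 days of treatment, lung cancer cells in 1536-well plates were fixed and stained in a single step (final 0.05% Triton X-100, 1% formaldehyde, 1 ug/ml Hoechst) and their nuclei counted on 4× images. Treatment had been applied by pin tool the day after seeding as one drug alone or as a fixed anchor-drug dose with five library-drug doses (not always all listed) in √10 steps. Relative viability is the nuclei count of treated wells divided by that of vehicle wells, and values are medians of duplicate plates.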

PC-3 [JPC-3] = system: PC-3 [JPC-3]
Outline: as §1

NCI-H460 = system: NCI-H460
Outline: as §1

NCI-H1650 = system: NCI-H1650
Outline: as §1

NCI-H661 = system: NCI-H661
Outline: as §1

NCI-H596 = system: NCI-H596
Outline: as §1

EKVX = system: EKVX
Outline: as §1

NCI-H1666 = system: NCI-H1666
Outline: as §1

NCI-H520 = system: NCI-H520
Outline: as §1

NCI-H727 = system: NCI-H727
Outline: as §1

NCI-H1792 = system: NCI-H1792
Outline: as §1

SK-LU-1 = system: SK-LU-1
Outline: as §1

Cc1csc(=NC2CCCCC2)n1/N=C/c1ccc(O)c(O)c1O [MIM1] + Cc1nc(Nc2ncc(C(=O)Nc3c(C)cccc3Cl)s2)cc(N2CCN(CCO)CC2)n1 [Dasatinib] (partner 0.075 µM)
relative viability (NCI-H838): 0.218 | relative viability (PC-3 [JPC-3]; first compound 0.2 µM): 1.03 | relative viability (PC-3 [JPC-3]; first compound 0.6325 µM): 0.976 | relative viability (PC-3 [JPC-3]; first compound 2 µM): 0.981 | relative viability (PC-3 [JPC-3]; first compound 6.325 µM): 0.904 | relative viability (PC-3 [JPC-3]; first compound 20 µM): 0.582 | relative viability (NCI-H460; first compound 0.2 µM): 0.508 | relative viability (NCI-H460; first compound 0.6325 µM): 0.42 | relative viability (NCI-H460; first compound 2 µM): 0.467 | relative viability (NCI-H460; first compound 6.325 µM): 0.327 | relative viability (NCI-H460; first compound 20 µM): 0.044 | relative viability (NCI-H1650; first compound 0.2 µM): 0.304 | relative viability (NCI-H1650; first compound 0.6325 µM): 0.316 | relative viability (NCI-H1650; first compound 2 µM): 0.24 | relative viability (NCI-H1650; first compound 6.325 µM): 0.186 | relative viability (NCI-H1650; first compound 20 µM): 0.159 | relative viability (NCI-H661; first compound 0.2 µM): 0.997 | relative viability (NCI-H661; first compound 0.6325 µM): 0.866 | relative viability (NCI-H661; first compound 2 µM): 0.87 | relative viability (NCI-H661; first compound 6.325 µM): 0.406 | relative viability (NCI-H661; first compound 20 µM): 0.224 | relative viability (NCI-H596; first compound 0.2 µM): 0.646 | relative viability (NCI-H596; first compound 0.6325 µM): 0.651 | relative viability (NCI-H596; first compound 2 µM): 0.546 | relative viability (NCI-H596; first compound 6.325 µM): 0.61 | relative viability (NCI-H596; first compound 20 µM): 0.597 | relative viability (EKVX; first compound 0.2 µM): 0.591 | relative viability (EKVX; first compound 2 µM): 0.558 | relative viability (EKVX; first compound 6.325 µM): 0.514 | relative viability (EKVX; first compound 20 µM): 0.391 | relative viability (NCI-H1666; first compound 0.2 µM): 0.788 | relative viability (NCI-H1666; first compound 0.6325 µM): 0.852 | relative viability (NCI-H1666; first compound 2 µM): 0.711 | relative viability (NCI-H1666; first compound 6.325 µM): 0.528 | relative viability (NCI-H1666; first compound 20 µM): 0.41 | relative viability (NCI-H520; first compound 0.2 µM): 0.19 | relative viability (NCI-H520; first compound 0.6325 µM): 0.21 | relative viability (NCI-H520; first compound 2 µM): 0.286 | relative viability (NCI-H520; first compound 6.325 µM): 0.18 | relative viability (NCI-H520; first compound 20 µM): 0.192 | relative viability (NCI-H727; first compound 0.2 µM): 0.383 | relative viability (NCI-H727; first compound 0.6325 µM): 0.36 | relative viability (NCI-H727; first compound 2 µM): 0.276 | relative viability (NCI-H727; first compound 6.325 µM): 0.356 | relative viability (NCI-H727; first compound 20 µM): 0.267 | relative viability (NCI-H1792; first compound 0.2 µM): 0.786 | relative viability (NCI-H1792; first compound 0.6325 µM): 0.661 | relative viability (NCI-H1792; first compound 2 µM): 0.716 | relative viability (NCI-H1792; first compound 6.325 µM): 0.757 | relative viability (NCI-H1792; first compound 20 µM): 0.808 | relative viability (SK-LU-1; first compound 0.2 µM): 0.155 | relative viability (SK-LU-1; first compound 0.6325 µM): 0.19 | relative viability (SK-LU-1; first compound 2 µM): 0.189 | relative viability (SK-LU-1; first compound 6.325 µM): 0.166 | relative viability (SK-LU-1; first compound 20 µM): 0.235
